Laboratory results taken from publication PMC12775434, “Ultra-large virtual screening unveils potent agonists of the neuromodulatory orphan receptor GPR139” (Nature Communications, 2025).
Where “and” joins values, the source holds several entries; their conditions need not be identical. Equal entries are not always repeated.

Tests used:
Assay type in all cases: cell-based
[1] = target: T1, human muscarinic acetylcholine M1 receptor (M1R) (Homo sapiens, UniProt P11229); experiment: Ca2+ mobilization counter-screen in M1R-CHOk1 cells; conditions: individual replicates (Supplementary Figure 2)
T1 sequence (P11229 1-460): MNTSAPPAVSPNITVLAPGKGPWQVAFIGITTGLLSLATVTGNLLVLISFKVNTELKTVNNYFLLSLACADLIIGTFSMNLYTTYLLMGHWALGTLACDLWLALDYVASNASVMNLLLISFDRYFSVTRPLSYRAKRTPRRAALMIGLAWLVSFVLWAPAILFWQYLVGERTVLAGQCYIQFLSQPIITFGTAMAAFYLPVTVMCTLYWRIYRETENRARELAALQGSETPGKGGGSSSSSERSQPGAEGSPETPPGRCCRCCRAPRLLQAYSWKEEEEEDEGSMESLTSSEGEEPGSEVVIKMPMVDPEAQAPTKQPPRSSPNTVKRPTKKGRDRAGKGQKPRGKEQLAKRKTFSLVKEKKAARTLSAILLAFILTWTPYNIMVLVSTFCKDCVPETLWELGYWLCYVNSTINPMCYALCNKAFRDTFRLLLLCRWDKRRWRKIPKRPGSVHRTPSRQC
Summary of the method: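 Stable M1R-CHOk1 line; Fluo-4 AM 2 µM, 1 h, 37 °C; HEPES-buffered HBSS pH 7.4 + 1 mM MgCl2/CaCl2 + 2.5 mM probenecid; 10 min equilibration; compound injected post-baseline; ex 485/em 525, 37 °C; DMSO ≤0.3%.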

GPR139 [2] = target: T2, GPR139 (Homo sapiens, UniProt Q6DWJ6); experiment: Ca2+ mobilization assay, agonist mode, stable GPR139-CHOk1 cell line; conditions: for activation of GPR139 at three concentrations: 0.1, 1 and 10 µM, activity too low to reliably determine EC50
T2 sequence (Q6DWJ6 1-353): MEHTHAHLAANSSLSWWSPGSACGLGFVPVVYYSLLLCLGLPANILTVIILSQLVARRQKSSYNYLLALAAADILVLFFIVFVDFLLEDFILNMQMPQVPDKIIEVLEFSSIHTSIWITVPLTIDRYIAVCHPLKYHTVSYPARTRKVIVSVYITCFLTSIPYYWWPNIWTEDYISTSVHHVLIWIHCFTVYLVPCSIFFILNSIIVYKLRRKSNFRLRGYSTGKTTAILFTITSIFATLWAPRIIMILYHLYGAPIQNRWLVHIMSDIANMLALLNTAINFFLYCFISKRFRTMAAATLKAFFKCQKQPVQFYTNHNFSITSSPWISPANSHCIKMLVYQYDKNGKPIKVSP
Summary of the method: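 Agonist activity of compounds is assessed in stably transfected CHO-K1 cells using the calcium dye Fluo-4 at 37 °C in HEPES-buffered HBSS (pH 7.4). Efficacy is expressed relative to the reference agonist Lundbeck Cmp 1a, set as 100%.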

GPR139 [3] = target: T2, GPR139; experiment: Ca2+ mobilization assay, antagonist mode (EC80 800 nM Lundbeck Cmp 1a after 20 min preincubation), GPR139-CHOk1; conditions: individual replicates (Supplementary Figure 1)
Summary of the method: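 Fluo-4-loaded GPR139-CHOk1 cells in HEPES-buffered HBSS (pH 7.4, 2.5 mM probenecid) given test compounds at 10 µM, then after 20 min challenged with 800 nM Lundbeck Cmp 1a (EC80). Calcium fluorescence read at 37 °C, 485/525 nm.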

[4] = 0.1 µM, individual replicates (Supplementary Figure 3)
[5] = 1 µM, individual replicates (Supplementary Figure 3)
[6] = 10 µM, individual replicates (Supplementary Figure 3)
[7] = Agonist mode, individual replicates (Supplementary Figure 1)
[8] = primary screen, 10 µM compound, agonist mode, three columns = independent experiments

Compound	Ca2+ signal (% of Cmp 1a) (GPR139 [2]; [4])	Ca2+ signal (% of Cmp 1a) (GPR139 [2]; [5])	Ca2+ signal (% of Cmp 1a) (GPR139 [2]; [6])	Ca2+ signal (% of Carbachol) [1]	activation of GPR139 at three concentrations (GPR139 [2])	Ca2+ signal (% of Cmp 1a) (GPR139 [2]; [7])	Ca2+ signal (% of Cmp 1a) (GPR139 [2]; [8])	Ca2+ signal (% of Cmp 1a) (GPR139 [3])
O=C(NCc1ccc(Cl)o1)N1CCCc2ccccc2C1 [Compound 7, ClC1=CC=C(CNC(=O)N2CCCC=3C=CC=CC3C2)O1]	16.2 % of Cmp 1a and 6.0 % of Cmp 1a	2.4 % of Cmp 1a and 4.1 % of Cmp 1a	22.7 % of Cmp 1a and 24.5 % of Cmp 1a	-10 % of Carbachol and -18 % of Carbachol	concentration-dependent activation of GPR139	44 % of Cmp 1a and 39 % of Cmp 1a and 33 % of Cmp 1a	44 % of Cmp 1a and 39 % of Cmp 1a and 33 % of Cmp 1a	37.7665 % of Cmp 1a and 52.8581 % of Cmp 1a and 40.8806 % of Cmp 1a
CN(Cc1cc(Cl)cn1C)C(=O)CCC(=O)c1cccs1 [Compound 11, CN(CC1=CC(Cl)=CN1C)C(=O)CCC(=O)C2=CC=CS2]	1.5 % of Cmp 1a and 12.7 % of Cmp 1a	-6.5 % of Cmp 1a and 1.1 % of Cmp 1a	13.9 % of Cmp 1a and 12.8 % of Cmp 1a	-4 % of Carbachol and 17 % of Carbachol	–	40 % of Cmp 1a and 30 % of Cmp 1a and 33 % of Cmp 1a	40 % of Cmp 1a and 30 % of Cmp 1a and 33 % of Cmp 1a	63.3528 % of Cmp 1a and 60.457 % of Cmp 1a and 64.2066 % of Cmp 1a
CCOc1ccc(C(=O)OCC(=O)N[C@H](C)c2ccccc2)cc1 [Compound 14, CCOC=1C=CC(=CC1)C(=O)OCC(=O)N[C@H](C)C=2C=CC=CC2]	1.0 % of Cmp 1a and -0.9 % of Cmp 1a	-7.4 % of Cmp 1a and 2.7 % of Cmp 1a	15.1 % of Cmp 1a and 12.7 % of Cmp 1a	-14 % of Carbachol and 13 % of Carbachol	–	37 % of Cmp 1a and 14 % of Cmp 1a and 31 % of Cmp 1a	–	75.8591 % of Cmp 1a and 82.1128 % of Cmp 1a and 79.0278 % of Cmp 1a

More lines, main results first:

Ca2+ signal (% of Cmp 1a) (GPR139 [2]; [4])	Ca2+ signal (% of Cmp 1a) (GPR139 [2]; [5])	Ca2+ signal (% of Cmp 1a) (GPR139 [2]; [6])	Compound	Ca2+ signal (% of Carbachol) [1]	activation of GPR139 at three concentrations (GPR139 [2])	Ca2+ signal (% of Cmp 1a) (GPR139 [2]; [7])	Ca2+ signal (% of Cmp 1a) (GPR139 [2]; [8])	Ca2+ signal (% of Cmp 1a) (GPR139 [3])
-2.0 % of Cmp 1a and -2.7 % of Cmp 1a	3.0 % of Cmp 1a and 3.4 % of Cmp 1a	24.4 % of Cmp 1a and 22.7 % of Cmp 1a	C[C@H](NC(=O)c1ccc(Cn2cc(Cl)cn2)o1)c1ccccc1 [Compound 8, C[C@H](NC(=O)C1=CC=C(CN2C=C(Cl)C=N2)O1)C=3C=CC=CC3]	-17 % of Carbachol and 6 % of Carbachol	–	47 % of Cmp 1a and 45 % of Cmp 1a and 51 % of Cmp 1a	47 % of Cmp 1a and 45 % of Cmp 1a and 51 % of Cmp 1a	48.2832 % of Cmp 1a and 57.355 % of Cmp 1a and 45.2011 % of Cmp 1a
-6.9 % of Cmp 1a and -8.5 % of Cmp 1a	-0.2 % of Cmp 1a and -5.2 % of Cmp 1a	18.7 % of Cmp 1a and 14.1 % of Cmp 1a	CN1CC(=O)N(c2cccc(NC(=O)C3Cc4ccccc43)c2)C1=O (stereo not shown) [Compound 9, CN1CC(=O)N(C1=O)C=2C=CC=C(NC(=O)C3CC=4C=CC=CC34)C2]	-9 % of Carbachol and -19 % of Carbachol	–	25 % of Cmp 1a and 10 % of Cmp 1a and 48 % of Cmp 1a	–	73.6349 % of Cmp 1a and 73.421 % of Cmp 1a and 97.2374 % of Cmp 1a
-1.5 % of Cmp 1a and 11.5 % of Cmp 1a	2.4 % of Cmp 1a and 6.6 % of Cmp 1a	39.5 % of Cmp 1a and 47.6 % of Cmp 1a	C[C@H](NC(=O)CN(CC1CC1)C(=O)OC(C)(C)C)c1ccccc1 [Compound 10, C[C@H](NC(=O)CN(CC1CC1)C(=O)OC(C)(C)C)C=2C=CC=CC2]	3.79 % of Carbachol and -10 % of Carbachol	concentration-dependent activation of GPR139	58 % of Cmp 1a and 64 % of Cmp 1a and 72 % of Cmp 1a	58 % of Cmp 1a and 64 % of Cmp 1a and 72 % of Cmp 1a	34.852 % of Cmp 1a and 42.0733 % of Cmp 1a and 46.5676 % of Cmp 1a
-2.8 % of Cmp 1a and 0.3 % of Cmp 1a	-0.458 % of Cmp 1a and 0.235 % of Cmp 1a	12.7 % of Cmp 1a and 12.3 % of Cmp 1a	CC(NC(=O)C1CCN(c2cccc(Cl)c2)C1=O)c1ccsc1 (stereo not shown) [Compound 12, CC(NC(=O)C1CCN(C1=O)C=2C=CC=C(Cl)C2)C=3C=CSC3]	-6.54 % of Carbachol and -0.0404 % of Carbachol	–	45 % of Cmp 1a and 20 % of Cmp 1a and 39 % of Cmp 1a	–	56.3731 % of Cmp 1a and 71.421 % of Cmp 1a and 56.1991 % of Cmp 1a
-0.35 % of Cmp 1a and -3.4 % of Cmp 1a	5.0 % of Cmp 1a and -6.6 % of Cmp 1a	18.4 % of Cmp 1a and -6.0 % of Cmp 1a	O=C(NC1CC12CCCC2)C1CCCN(c2ccccc2)C1=O (stereo not shown) [Compound 13, O=C(NC1CC21CCCC2)C3CCCN(C3=O)C=4C=CC=CC4]	-12 % of Carbachol and -1.24 % of Carbachol	–	47 % of Cmp 1a and 33 % of Cmp 1a and 40 % of Cmp 1a	47 % of Cmp 1a and 33 % of Cmp 1a and 40 % of Cmp 1a	67.15 % of Cmp 1a and 66.5231 % of Cmp 1a and 65.9874 % of Cmp 1a
